# Laboratory results: patent US6277859A, “Morphinan derivative and its pharmaceutical applications” (priority 1992, dated 2001)
# Counter-ions that a name gives are not always drawn.
# How the values were obtained:
# [1] = target: T1, κ receptor (Mus musculus, UniProt P33534); experiment: Ke with norBNI in isolated mouse vas deference preparation; format: cell-based, mouse (male ddy); conditions: for Ke norBNI: norBNI (κ)
# T1 construct: The isolated vas deference was filled with Krebes-Henseleit solution; from tissue; host or cells: isolated vas deferens of male ddy mouse
# Description: (§1) A male ddy mouse was used in this test. The isolated vas deference was filled with Krebes-Henseleit solution (NaCl 118 mM; KCl 4.7 mM; CaCl2 2.5 mM; KH2 PO4 1.1 mM; NaHCO3 25 mM; and glucose 10 mM) warmed to 37° C. and suspended in a Magnus tube ventilated with 5% carbon dioxide and 95% oxygen. Electrical stimulus was performed at 0.1 Hz for 5.0 ms by means of ring-shaped platinum electrodes located above and below. Tissue contractions were recorded on a polygraph using an isometric transducer.
# (§2) Then after adequately washing with nutrient solution and the contraction reaction stabilized, naloxone, a μ […], NTI, a δ […], or norBNI, a κ […], were added and the test compound was again cumulatively added after roughly 20 minutes. The Ke value was calculated using the following calculation formula from the difference in the efficacies of both agonists.
# (§3) Ke=[Conc. of added agonist]/(IC50 ratio-1)
# (§4) IC50 ratio IC50 in the presence of agonist/IC50 in the absence of agonist
# [2] = test system: Wistar rats; experiment: Evaluation of diuretic action; format: in vivo, rat (male Wistar); conditions: sc, rat, s.c., urine output for 5 h after 20 ml/kg saline oral; for ED200: read-out: ED200, diuretic action (dose giving urine output of 200, non-dosed group = 100); for ED500: read-out: ED500, diuretic action (dose giving urine output of 500, non-dosed group = 100)
# Description: Evaluation of Diuretic Action
# 7-8 week old male Wistar rats were used in this test after prohibiting from drinking water for 1 hour before testing. After discharging any urine accumulated in the bladder by gently stimulating the lower abdomens of the animals, the drug was administered subcutaneously. After 30 minutes, the animals were then forcibly given 20 ml/kg of physiological saline orally. The animals were then placed in metabolic cages immediately after administration of the drug (2 animals/cage) and urine output for 5 hours after loading with physiological saline was measured. Drug efficacy was expressed in the form of those doses resulting in urine outputs of 200 and 500, respectively, when the urine output of a non-dosed group was taken to be 100. Those doses were expressed as the ED200 and ED500 values, respectively.
# [3] = target: T2, δ receptor (Mus musculus, UniProt P32300); experiment: Ke with NTI in isolated mouse vas deference preparation; format: cell-based, mouse (male ddy); conditions: NTI (δ)
# T2 construct: The isolated vas deference was filled with Krebes-Henseleit solution; from tissue; host or cells: isolated vas deferens of male ddy mouse
# Description: as §1, §2, §3, §4
# [4] = target: T3, μ receptor (Mus musculus, UniProt P42866); experiment: Ke with naloxone in isolated mouse vas deference preparation; format: cell-based, mouse (male ddy)
# T3 construct: The isolated vas deference was filled with Krebes-Henseleit solution; from tissue; host or cells: isolated vas deferens of male ddy mouse
# Description: as §1, §2, §3, §4
# T3 sequence (P42866 whole entry): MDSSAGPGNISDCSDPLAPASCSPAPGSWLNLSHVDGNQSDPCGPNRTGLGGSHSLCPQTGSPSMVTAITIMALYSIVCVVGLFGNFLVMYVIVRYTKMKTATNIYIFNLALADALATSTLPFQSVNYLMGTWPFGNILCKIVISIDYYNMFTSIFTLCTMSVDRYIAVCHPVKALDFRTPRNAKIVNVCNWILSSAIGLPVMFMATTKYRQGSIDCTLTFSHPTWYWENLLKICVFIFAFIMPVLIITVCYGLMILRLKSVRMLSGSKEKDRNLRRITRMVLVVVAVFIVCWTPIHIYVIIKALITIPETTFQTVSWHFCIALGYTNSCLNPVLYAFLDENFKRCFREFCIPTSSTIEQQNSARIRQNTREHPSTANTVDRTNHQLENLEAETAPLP
# T1 sequence (P33534 whole entry): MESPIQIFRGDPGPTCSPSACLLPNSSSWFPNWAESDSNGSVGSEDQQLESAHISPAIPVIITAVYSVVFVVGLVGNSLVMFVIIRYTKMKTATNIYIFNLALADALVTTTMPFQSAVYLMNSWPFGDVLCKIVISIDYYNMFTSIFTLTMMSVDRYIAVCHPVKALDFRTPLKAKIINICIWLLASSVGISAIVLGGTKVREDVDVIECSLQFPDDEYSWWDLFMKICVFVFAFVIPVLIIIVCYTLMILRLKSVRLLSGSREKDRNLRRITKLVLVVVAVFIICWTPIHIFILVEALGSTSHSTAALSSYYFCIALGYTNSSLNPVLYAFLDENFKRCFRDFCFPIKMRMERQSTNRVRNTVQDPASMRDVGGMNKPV
# T2 sequence (P32300 whole entry): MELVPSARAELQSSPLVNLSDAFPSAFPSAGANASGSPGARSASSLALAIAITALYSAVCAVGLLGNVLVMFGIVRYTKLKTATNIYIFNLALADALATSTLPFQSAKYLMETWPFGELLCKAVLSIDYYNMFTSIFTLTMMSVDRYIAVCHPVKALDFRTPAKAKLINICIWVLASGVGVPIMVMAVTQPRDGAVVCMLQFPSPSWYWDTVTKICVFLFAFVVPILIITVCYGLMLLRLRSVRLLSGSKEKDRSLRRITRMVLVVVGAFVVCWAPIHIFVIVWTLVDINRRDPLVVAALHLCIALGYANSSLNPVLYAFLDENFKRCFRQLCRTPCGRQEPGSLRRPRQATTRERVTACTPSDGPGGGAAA
SMILES,selective agonist for κ receptors (in words) [1],Ke norBNI [1] [nM],ED200 [2] [mg/kg],Ke NTI [3] [nM],Ke Naloxone [4] [nM],ED500 [2] [mg/kg]
"CN(C(=O)CC(=O)c1ccccc1)[C@@H]1CC[C@@]2(O)[C@H]3Cc4ccc(O)c5c4[C@@]2(CCN3CC2CC2)[C@H]1O5 [Compound 103, 17-cyclopropylmethyl-3,14β-dihydroxy-4,5α-epoxy-6β-(N-methylbenzoylacetamido)morphinan.tartrate]",selective agonists for κ receptors,0.657,,,,
"CCC/C=C/C(=O)N(C)[C@H]1CC[C@@]2(O)[C@H]3Cc4ccc(O)c5c4[C@@]2(CCN3CC2CC2)[C@H]1O5 [Compound 95, 17-cyclopropylmethyl-3,14β-dihydroxy-4,5α-epoxy-6α-(N-methyl-trans-2-hexenamido)morphinan.tartrate]",,,0.0028,,,
"CC(=O)Oc1ccc2c3c1O[C@H]1[C@H](N(C)C(=O)/C=C/c4cccc(C(F)(F)F)c4)CC[C@@]4(O)[C@@H](C2)N(CC2CC2)CC[C@]314 [Compound 141, 17-cyclopropylmethyl-3-acetoxy-14β-hydroxy-4,5α-epoxy-6β-(N-methyl-3-trifluoromethylcinnamamido)morphinan.tartrate]",selective agonists for κ receptors,1.39,,184,142,
"CN(C(=O)/C=C/c1ccsc1)[C@H]1CC[C@@]2(O)[C@H]3Cc4ccc(O)c5c4[C@@]2(CCN3CC2CC2)[C@H]1O5 [Compound 91, 17-cyclopropylmethyl-3,14β-dihydroxy-4,5α-epoxy-6α-[N-methyl-trans-3-(3-thienyl)acrylamido]morphinan.tartrate]",selective agonists for κ receptors,0.699,0.0094,450,,0.96
"CN(C(=O)/C=C/c1cccc([N+](=O)[O-])c1)[C@@H]1CC[C@@]2(O)[C@H]3Cc4ccc(O)c5c4[C@@]2(CCN3CC2CC2)[C@H]1O5 [Compound 104, 17-cyclopropylmethyl-3,14β-dihydroxy-4,5α-epoxy-6β-(N-methyl-3-nitrocinnamamido)morphinan.tartrate]",,1.40,,89,185,
"CCCCOC(=O)N(C)[C@@H]1CC[C@@]2(O)[C@H]3Cc4ccc(O)c5c4[C@@]2(CCN3CC2CC2)[C@H]1O5 [Compound 59, 17-cyclopropylmethyl-3,14β-dihydroxy-4,5α-epoxy-6β-(N-methylbutyroxycarbamido)morphinan.tartrate]",selective agonists for κ receptors,0.151,,47.3,21.3,
"CN(C(=O)/C=C/c1ccc(Cl)c(Cl)c1)[C@H]1CC[C@@]2(O)[C@H]3Cc4ccc(O)c5c4[C@@]2(CCN3CC2CC2)[C@H]1O5 [Compound 86, 17-cyclopropylmethyl-3,14β-dihydroxy-4,5α-epoxy-6α-(N-methyl-3,4-dichlorocinnamamido) morphinan.hydrochloride]",,,0.0057,,,
"CN(C(=O)OCc1ccccc1)[C@@H]1CC[C@@]2(O)[C@H]3Cc4ccc(O)c5c4[C@@]2(CCN3CC2CC2)[C@H]1O5 [Compound 56, 17-cyclopropylmethyl-3,14β-dihydroxy-4,5α-epoxy-60-(N-methylbenzyloxycarbamido)morphinan.hydrochloride]",,,0.0028,,,
"CN(C(=O)Cc1ccc(Br)cc1)[C@H]1CC[C@@]2(O)[C@H]3Cc4ccc(O)c5c4[C@@]2(CCN3CC2CC2)[C@H]1O5 [Compound 28, 17-cyclopropylmethyl-3,14β-dihydroxy-4,5α-epoxy-6α-(N-methyl-4-bromophenylacetamido)morphinan.hydrobromide]",,,0.02,,,
"CN(C(=O)Cc1csc2ccccc12)[C@H]1CC[C@@]2(O)[C@H]3Cc4ccc(O)c5c4[C@@]2(CCN3CC2CC2)[C@H]1O5 [Compound 107, 17-cyclopropylmethyl-3,14β-dihydroxy-4,5α-epoxy-6α-(N-methyl-3-benzo[b]thienylacetamido)morphinan.hydrochloride]",,,0.0061,,,0.2
"O=C(Cc1ccc(Cl)c(Cl)c1)N[C@H]1CC[C@@]2(O)[C@H]3Cc4ccc(O)c5c4[C@@]2(CCN3CC2CC2)[C@H]1O5 [Compound 52, 17-cyclopropylmethyl-4,5α-epoxy-3,14β-dihydroxy-6α-(3,4-dichlorophenylacetoamido) morphinan.hydrochloride]",selective agonists for κ receptors,,,,,
"CN(C(=O)Cc1ccc(F)c(F)c1)[C@H]1CC[C@@]2(O)[C@H]3Cc4ccc(O)c5c4[C@@]2(CCN3CC2CC2)[C@H]1O5 [Compound 105, 17-cyclopropylmethyl-3,14β-dihydroxy-4,5α-epoxy-6α-(N-methyl-3,4-difluorophenylacetamido)morphinan.hydrochloride]",,,0.019,,,3.3
"CN(C(=O)CCc1ccccc1)[C@@H]1CC[C@@]2(O)[C@H]3Cc4ccc(O)c5c4[C@@]2(CCN3CC2CC2)[C@H]1O5 [Compound 57, 17-cyclopropylmethyl-3,14β-dihydroxy-4,5α-epoxy-60-(N-methyl-3-phenylpropionamido) morphinan.hydrochloride]",selective agonists for κ receptors,0.0124,,747,,
"CN(C(=O)Cc1cccc(C(F)(F)F)c1)[C@H]1CC[C@@]2(O)[C@H]3Cc4ccc(O)c5c4[C@@]2(CCN3CC2CC2)[C@H]1O5 [Compound 108, 17-cyclopropylmethyl-3,14β-dihydroxy-4,5α-epoxy-6α-(N-methyl-3-trifluoromethylphenylacetamido) morphinan.hydrochloride]",,,0.021,,,
"CN(C(=O)Cc1ccc(Cl)c(Cl)c1)[C@@H]1CC[C@@]2(O)[C@H]3Cc4ccc(O)c5c4[C@@]2(CCN3CC2CC2)[C@H]1O5 [Compound 53, 17-cyclopropylmethyl-4,5α-epoxy-3,14β-dihydroxy-6β-(N-methyl-3,4-dichlorophenylacetoamido)morphinan.hydrochloride]",,0.21,,1676,,
"CCCCCC(=O)N(C)[C@@H]1CC[C@@]2(O)[C@H]3Cc4ccc(O)c5c4[C@@]2(CCN3CC2CC2)[C@H]1O5 [Compound 62, 17-cyclopropylmethyl-3,14β-dihydroxy-4,5α-epoxy-6β-(N-methylhexanamido)morphinan.tartrate]",selective agonists for κ receptors,0.203,,90.2,,
"CCCCCCC(=O)N(C)[C@H]1CC[C@@]2(O)[C@H]3Cc4ccc(O)c5c4[C@@]2(CCN3CC2CC2)[C@H]1O5 [Compound 46, 17-cyclopropylmethyl-3,14β-dihydroxy-4,5α-epoxy-6α-(N-methylheptanamido)morphinan.hydrochloride]",selective agonists for κ receptors,0.440,,,,
"CN(C(=O)/C=C/C1CCCCC1)[C@H]1CC[C@@]2(O)[C@H]3Cc4ccc(O)c5c4[C@@]2(CCN3CC2CC2)[C@H]1O5 [Compound 50, 17-cyclopropylmethyl-4,5α-epoxy-3,14β-dihydroxy-6α-(N-methyl-trans-3-cyclohexylacrylamido)morphinan.hydrochloride]",,,0.0021,,,
